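Assay format: 96-well plates, 48-hour exposure. Abbreviation: GI50, concentration required for 50% inhibition of growth.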 Activity calls are given as the source filed them. Cut-off read from the data, not from the text of the source: active = GI50 up to about 1.1 µM and inactive = higher.
Legend:
Assay in all cases: growth of human tumour cells (NCI), 48 h
EKVX = system: EKVX
LOX IMVI = system: LOX IMVI
HCT-15 = system: HCT-15
SW-620 = system: SW-620
LXFL 529 = system: LXFL 529
HOP-18 = system: HOP-18
RXF 631 = system: RXF 631
DLD-1 = system: DLD-1
K562 = system: K562
MOLT-4 = system: MOLT-4
SNB-75 = system: SNB-75
UO-31 = system: UO-31
M14 = system: M14
SF-295 = system: SF-295
A549 = system: A549
HCC 2998 = system: HCC 2998
CAKI-1 = system: CAKI-1
TK-10 = system: TK-10
OVCAR-5 = system: OVCAR-5
UACC-257 = system: UACC-257
SNB-19 = system: SNB-19
HOP-62 = system: HOP-62
M19-MEL = system: M19-MEL
OVCAR-3 = system: OVCAR-3
U-251 = system: U-251
HL-60 = system: HL-60
KM12 = system: KM12
NCI-H460 = system: NCI-H460
NCI-H23 = system: NCI-H23
SR = system: SR
NCI-H522 = system: NCI-H522
UACC-62 = system: UACC-62
HT-29 = system: HT-29
CCRF-CEM = system: CCRF-CEM
SF-268 = system: SF-268
RXF 393 = system: RXF 393
SF-539 = system: SF-539
SK-MEL-5 = system: SK-MEL-5
DMS-114 = system: DMS-114
IGROV-1 = system: IGROV-1
COLO 205 = system: COLO 205
A498 = system: A498
HOP-92 = system: HOP-92
Malme-3M = system: Malme-3M
NCI-H226 = system: NCI-H226
RPMI-8226 = system: RPMI-8226
786-0 = system: 786-0
OVCAR-4 = system: OVCAR-4
SK-OV-3 = system: SK-OV-3
KM-20L2 = system: KM-20L2
XF498 = system: XF498
ACHN = system: ACHN
SN12C = system: SN12C
DMS-273 = system: DMS-273
OVCAR-8 = system: OVCAR-8
HCT-116 = system: HCT-116
SK-MEL-28 = system: SK-MEL-28
SNB-78 = system: SNB-78

`O=C(NO)c1ccc(O)c(O)c1` was tested, and the GI50 (EKVX) was > 100 µM (inactive), the GI50 (LOX IMVI) was > 10 µM (inactive) and the GI50 (HCT-15) was 98.4 µM. For the same compound, the GI50 (SW-620) was 47.6 µM (inactive), the GI50 (LXFL 529) was > 100 µM (inactive) and the GI50 (HOP-18) was 72.3 µM (inactive). For the same compound, the GI50 (RXF 631) was > 100 µM (inactive), the GI50 (DLD-1) was > 100 µM (inactive) and the GI50 (K562) was 26.5 µM (inactive). The GI50 (MOLT-4) was 93.3 µM (inactive), the GI50 (SNB-75) was > 100 µM (inactive) and the GI50 (UO-31) was > 100 µM (inactive). The GI50 (M14) was > 100 µM (inactive), the GI50 (SF-295) was 29.5 µM (inactive) and the GI50 (A549) was > 100 µM (inactive). For the same compound, the GI50 (HCC 2998) was > 100 µM (inactive), the GI50 (CAKI-1) was > 100 µM (inactive) and the GI50 (TK-10) was 98.6 µM (inactive). For the same compound, the GI50 (OVCAR-5) was 94.6 µM (inactive), the GI50 (UACC-257) was > 100 µM (inactive) and the GI50 (SNB-19) was > 100 µM (inactive). The GI50 (HOP-62) was > 100 µM (inactive), the GI50 (M19-MEL) was > 100 µM (inactive) and the GI50 (OVCAR-3) was > 100 µM (inactive). For the same compound, the GI50 (U-251) was > 100 µM (inactive), the GI50 (HL-60) was 9.77 µM (inactive) and the GI50 (KM12) was > 100 µM (inactive). The GI50 (NCI-H460) was 70.3 µM (inactive), the GI50 (NCI-H23) was > 100 µM (inactive) and the GI50 (SR) was 36.4 µM (inactive). The GI50 (NCI-H522) was 79.4 µM (inactive), the GI50 (UACC-62) was > 100 µM (inactive) and the GI50 (HT-29) was > 100 µM (inactive). The GI50 (CCRF-CEM) was 42.1 µM (inactive), the GI50 (SF-268) was > 100 µM (inactive) and the GI50 (RXF 393) was > 100 µM (inactive). For the same compound, the GI50 (SF-539) was > 100 µM (inactive), the GI50 (SK-MEL-5) was > 100 µM (inactive) and the GI50 (DMS-114) was 55.1 µM (inactive). The GI50 (IGROV-1) was > 100 µM (inactive), the GI50 (COLO 205) was > 100 µM (inactive) and the GI50 (A498) was > 100 µM (inactive). The GI50 (HOP-92) was > 100 µM (inactive), the GI50 (Malme-3M) was > 100 µM (inactive) and the GI50 (NCI-H226) was > 100 µM (inactive). For the same compound, the GI50 (RPMI-8226) was 32.4 µM (inactive), the GI50 (786-0) was > 100 µM (inactive) and the GI50 (OVCAR-4) was > 100 µM (inactive). For the same compound, the GI50 (SK-OV-3) was > 100 µM (inactive), the GI50 (KM-20L2) was > 100 µM (inactive) and the GI50 (XF498) was > 100 µM (inactive). For the same compound, the GI50 (ACHN) was > 100 µM (inactive), the GI50 (SN12C) was > 100 µM (inactive) and the GI50 (DMS-273) was 27.8 µM (inactive). For the same compound, the GI50 (OVCAR-8) was 79.1 µM (inactive), the GI50 (HCT-116) was > 100 µM (inactive) and the GI50 (SK-MEL-28) was > 100 µM (inactive). For the same compound, the GI50 (SNB-78) was > 100 µM (inactive).

Source: ChEMBL document CHEMBL1201862, “PubChem BioAssay data set” (2004)
